Values of other authors, collected in patent US4756118A, “Method and apparatus for the destruction of imported fire ants of the genus Solenopsis” (priority 1986, dated 1988).

Legend:
Imported Fire Ant = settings: poison bait
[1] = relative to pyrethrum

Structure (SMILES)	effectiveness in Imported Fire Ant control (Imported Fire Ant)	Acute Oral LD50	times more effective than pyrethrum [1] [times]
CC1(C)CNC(=NN=C(C=Cc2ccc(C(F)(F)F)cc2)C=Cc2ccc(C(F)(F)F)cc2)NC1 [Amdro]	very limited in its effectiveness	–	–
ClC1(Cl)C2(Cl)C3(Cl)C4(Cl)C(Cl)(Cl)C5(Cl)C3(Cl)C1(Cl)C5(Cl)C24Cl (centres unmarked) [Mirex, dodecachloroocta-hydro-1,3,4-metheno-2H-cyclobuta(cd)pentalene]	most effective chemical control agent	306 mg/kg	–
CC(C)=CC1C(C(=O)OCc2coc(Cc3ccccc3)c2)C1(C)C (centres unmarked) [Resmethrin, [5-(phenylmethyl)-3-furanyl]methyl 2,2-dimethyl-3-(2-methyl-1-propenyl)cyclopropanecarboxylate]	–	4,420 mg./kg.	~20
